{
  "source": "patent US5559209A",
  "about": "“Regulator regions of G proteins” (The General Hospital Corporation, priority 1993, dated 1996)",
  "type_in_all_cases": "biochemical, bovine",
  "key": {"Gi2 [1]": {"target": "T1, Gi2 (Bos taurus, UniProt A7MBH9)", "T1 construct": "trimeric Gi2 (i.e., Gi2 αβγ) purified from bovine brain to near homogeneity; from tissue; host or cells: bovine brain", "T1 sequence (A7MBH9 2-355 limits assumed)": "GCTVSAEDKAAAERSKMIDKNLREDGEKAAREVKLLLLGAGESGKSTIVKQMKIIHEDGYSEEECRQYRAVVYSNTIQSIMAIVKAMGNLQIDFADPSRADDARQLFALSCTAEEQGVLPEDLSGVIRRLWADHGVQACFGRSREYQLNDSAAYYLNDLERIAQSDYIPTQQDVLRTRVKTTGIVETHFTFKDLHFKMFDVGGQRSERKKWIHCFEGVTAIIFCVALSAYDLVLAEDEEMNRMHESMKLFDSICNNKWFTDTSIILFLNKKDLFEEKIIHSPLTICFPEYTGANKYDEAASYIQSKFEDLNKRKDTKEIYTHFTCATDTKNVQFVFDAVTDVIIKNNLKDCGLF", "T1 sequence (P62871 2-340 partner limits assumed)": "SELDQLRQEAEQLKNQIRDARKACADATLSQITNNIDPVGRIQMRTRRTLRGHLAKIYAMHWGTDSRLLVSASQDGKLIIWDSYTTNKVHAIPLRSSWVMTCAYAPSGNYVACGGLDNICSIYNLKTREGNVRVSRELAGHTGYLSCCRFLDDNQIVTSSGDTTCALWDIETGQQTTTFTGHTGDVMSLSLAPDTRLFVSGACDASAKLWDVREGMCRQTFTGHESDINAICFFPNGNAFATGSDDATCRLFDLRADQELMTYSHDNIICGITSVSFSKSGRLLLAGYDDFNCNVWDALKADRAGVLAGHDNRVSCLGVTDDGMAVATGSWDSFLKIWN", "T1 sequence (P63212 2-68 partner limits assumed)": "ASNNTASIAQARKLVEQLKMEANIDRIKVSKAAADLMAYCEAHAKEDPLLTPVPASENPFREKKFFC", "assay": "GTPγS binding assay, peptide 14-induced Gi2 activation", "protocol": "Materials and Methods The in vitro assays described below utilize the couplone portion of each of a number of G-coupled receptors, instead of an intact receptor molecule, as a means for activating the corresponding anticouplone or intact G-protein. Except as noted below, Gi2 used in this study was trimeric Gi2 (i.e., Gi2 αβγ) purified from bovine brain to near homogeneity (Katada et al., FEBS Lett. 213:353-358 (1987), stored in buffer A (20 mM hepes/NaOH (pH 7.4), 1 mM EDTA, and 0.7% CHAPS), and diluted≥10 fold for assays. The Gi2 used for the reconstitution experiment was trimeric Gi2 purified from bovine spleen to homogeneity and dissolved in buffer B (Morishita et al., 1989). Gi3 α (Morishita et al., Biochem. Biophys. Res. Commun. 172:249-255 (1990), was purified from bovine spleen and used in combination with 1.5-fold concentrated Gβγ (Katada et al., 1987). This preparation of Gi3 α was 10-20% contaminated by Gi1 α, but not by other G proteins. Trimeric Gs and Gβγ purified from bovine brain to near homogeneity (Katada et al., 1987) were also stored in buffer A.\n(§1) GTPγS binding Assay--GTPγS binding to G proteins was assayed at 37° C. in 20 mM Hepes/NaOH buffer (pH 7.4) containing 130 μM MgCl2, 110 μM EDTA and 60 nM [^35 S]GTPγS, as described previously (Okamoto et al., 1990). GTPγS binding to polypeptides was negligible. The total amount of G protein was measured as maximal GTPγS binding at room temperature, as described (Okamoto et al., Cell 67:723-730, 1991a). [^35 S]GTPγS was purchased from DuPont-New England Nuclear. Binding of GTPγS to G proteins obeyed first-order kinetics according to the equation ln[(BT-B)/BT]=-kapp t, where B is the binding at time t and BT is the total binding observable at an infinite time. Thus, the apparent first-order rate constant for GTPγS binding (kapp), which is equal to the slope of the tangent to the GTPγS binding curve at time 0 and represents the actual GTPγS binding rate, was calculated from this equation.\nIn the experiment illustrated in FIG. 1A, 10 nM Gi2 was incubated with 30 μM peptide 14 (RVGLVRGEKARKGK; SEQ ID NO: 27), the couplone portion of the IGF-II receptor, in the presence of various concentrations of (.quadrature.) ACGi2 (DAVTDVIIKNNLKDC; SEQ ID NO: 3), (567 ) the control Gi2 α Glu297-Asp310 peptide (EAASYIQSKFEKLN; SEQ ID NO: 18), or (.diamond.) the control Gi2 α Lys346-Phe355 peptide (KNNLKDCGLF; SEQ ID NO: 19) for 5 min under the GTPγS binding assay conditions described above, and GTPγS binding to G proteins was measured. The effect of ACGi2 on Gi2 in the absence of peptide 14 is indicated by .box-solid.. Percent stimulation of GTPγS binding was calculated by subtracting the basal fractional binding and dividing by the stimulated fractional binding observed in the absence of ACGi2. The basal fractional binding (=0%) was 0.39 mol GTPγS binding/mol Gi /5 min (5 min^-1). The 100% increase represents the GTPγS binding of 0.85 (5 min^-1). Values in all figures represent the mean ±S.E. of three experiments.\nTo verify the notion that ACGi2 acts on Gi2 itself, and not on receptor sequences, two series of experiments were performed. First, the dose-response curve for peptide 14 action on Gi2 in the presence of various concentrations of ACGi2 was generated (FIG. 2A). Following incubation of 10 nM Gi2 with various concentrations of peptide 14 in the absence (.quadrature.) or presence of 10 μM (.diamond-solid.) or 30 μM (.box-solid.) ACGi2 for 5 min, GTPγS binding was assayed; fractional GTPγS binding to Gi2 is indicated in the figure.\nThe second series of experiments investigated the effect of ACGi2 on lower concentrations of Gi2 that had been activated by peptide 14 to the same extent (FIG. 2B). 1 nM Gi2 was incubated for 5 min with 3 μM peptide 14 in the presence of various concentrations of ACGi2, and GTPγS binding was measured. The fractional GTPγS binding at 0% and 100% in this experiment was 0.40 and 0.55 (5 min^-1), respectively. […]"}, "Gi2 [2]": {"target": "T1, Gi2", "assay": "GTPγS binding, TrM-peptide 14-induced Gi2 activation in phospholipid vesicles", "conditions": "0.3 nM Gi2 in phospholipid vesicles, 100 nM TrM-peptide 14; read-out: IC50, inhibition of TrM-peptide 14 stimulation of Gi2", "protocol": "(§2) Materials and Methods The in vitro assays described below utilize the couplone portion of each of a number of G-coupled receptors, instead of an intact receptor molecule, as a means for activating the corresponding anticouplone or intact G-protein. […]\nas §1, with “GTPγS binding to polypeptides was negligible.” left out, “[^35 S]GTPγS was purchased from DuPont-New England Nuclear. Binding of GTPγS to G proteins obeyed first-order kinetics according to the equation ln[(BT-B)/BT]=-kapp t, where B is the binding at time t and BT is the total binding observable at an infinite time.” left out\nTransmembrane domain-connected peptide 14 [\"TrM-peptide 14\"; […] […] In one of the experiments shown in FIG. 1B, 0.3 nM Gi2 reconstituted in phospholipid vesicles with 100 nM TrM-peptide 14 was exposed to various concentrations of ACGi2, and GTPγS binding was measured (.diamond-solid.). […]"}, "Gi3": {"target": "T2, Gi3 (Bos taurus, UniProt Q3ZCA7)", "T2 construct": "was purified from bovine spleen and used in combination with 1.5-fold concentrated Gβγ; from tissue; host or cells: bovine spleen (Gi3 α); bovine brain (Gβγ)", "T2 sequence (Q3ZCA7 2-354 limits assumed)": "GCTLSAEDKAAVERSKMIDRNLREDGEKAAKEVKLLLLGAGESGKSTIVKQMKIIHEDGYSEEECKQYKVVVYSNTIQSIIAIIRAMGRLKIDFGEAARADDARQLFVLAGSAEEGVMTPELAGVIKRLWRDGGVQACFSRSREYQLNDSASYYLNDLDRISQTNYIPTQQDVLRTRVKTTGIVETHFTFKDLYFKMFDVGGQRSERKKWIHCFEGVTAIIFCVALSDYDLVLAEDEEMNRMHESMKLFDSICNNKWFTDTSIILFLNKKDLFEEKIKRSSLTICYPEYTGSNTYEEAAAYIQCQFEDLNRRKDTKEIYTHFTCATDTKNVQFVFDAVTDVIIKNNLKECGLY", "T2 sequence (P62871 2-340 partner limits assumed)": "as the sequence (P62871 2-340 partner limits assumed) above", "T2 sequence (P63212 2-68 partner limits assumed)": "as the sequence (P63212 2-68 partner limits assumed) above", "assay": "GTPγS binding, peptide 14-induced Gi3 activation", "conditions": "10 nM Gi3, 30 μM peptide 14, 4 min", "protocol": "as §2\nas §1, with “GTPγS binding to polypeptides was negligible.” left out, “[^35 S]GTPγS was purchased from DuPont-New England Nuclear. Binding of GTPγS to G proteins obeyed first-order kinetics according to the equation ln[(BT-B)/BT]=-kapp t, where B is the binding at time t and BT is the total binding observable at an infinite time.” left out\nPeptide 14 is capable of activating Gi1 and Gi3 as well as Gi2 (Okamoto et al., 1990). The effect of ACGi2 on peptide 14-induced activation of these Gi proteins was examined as follows: 10 nM Gi1 (.quadrature.) or Gi3 (.diamond-solid.) was incubated with 30 μM peptide 14 in the presence of various concentrations of ACGi2 for 4 min, and GTPβS binding was measured. […]"}},
  "note": "Where no end group is shown, it is not given here.",
  "data": [
    {"sequence": "DAVTDVIIKNNLKDC [ACGi2, DAVTDVIIKNNLKDC]", "values": [
      {"measurement": "IC50", "setting": "Gi2 [1]; 10 nM Gi2, 30 μM peptide 14, 5 min, read-out: IC50, inhibition of peptide 14-induced GTPγS binding to Gi2", "result": "~3", "unit": "µM"},
      {"measurement": "inhibition at 3 µM", "setting": "Gi2 [1]; at 3 μM ACGi2 (so in the source), read-out: inhibition of stimulation of Gi2", "result": 100, "unit": "%"},
      {"measurement": "IC50", "setting": "Gi2 [2]", "result": 3, "unit": "µM"},
      {"measurement": "maximal inhibition of peptide 14-induced Gi3 activation", "setting": "Gi3", "result": "≈ 60%"}
    ]}
  ]
}
